In brackets after ≈: the same amount, converted by molar mass.

This experiment concerns S. pneumoniae ATCC 49619. Nature of the experiment: Minimal inhibitory concentration (MIC) by microdilution method (CLSI M7-A7). Type of experiment: cell-based, Streptococcus pneumoniae. The conditions noted are these: Streptococcus pneumoniae, ATCC49619, cation-adjusted Mueller-Hinton Broth supplemented with 3% (v/v) lysed horse blood. Summed up: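 For S. pneumoniae, cation-adjusted Mueller-Hinton broth carried 3% (v/v) lysed horse blood; MICs (mg/l) were read by CLSI M7-A7 microdilution.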
Consider `CCNC(=O)Nc1cc2cccc(Nc3ccc(OC)nc3)c2cn1` [Example 214, 1-ethyl-3-[8-(6-methoxy-pyridin-3-ylamino)-isoquinolin-3-yl]-urea], for which the minimal inhibitory concentration (MIC) came out at 16 µg/mL (≈ 47.4 µM).
In the case of `CCNC(=O)Nc1cc2c(F)c(NCc3ccccc3)cc(Cl)c2cn1` [Example 49, 1-(6-benzylamino-8-chloro-5-fluoro-isoquinolin-3-yl)-3-ethyl-urea], the MIC turned out to be 2 µg/mL (≈ 5.36 µM).
Take `CCNC(=O)Nc1cc2c(-c3cn(C)cn3)ccc(C)c2cn1.Cl` [Example 283, 1-ethyl-3-[8-methyl-5-(1-methyl-1H-imidazol-4-yl)-isoquinolin-3-yl]-urea hydrochloride]: the MIC turned out to be 8 µg/mL.
In turn, `CCNC(=O)Nc1cc2cc(-c3ccc(CO)nc3)cc(C)c2cn1` [Example 101, 1-ethyl-3-[6-(6-hydroxymethyl-pyridin-3-yl)-8-methyl-isoquinolin-3-yl]-urea] yielded an MIC of 1 µg/mL (≈ 2.97 µM). Against the preceding compound, the MIC is about 8-fold lower.
The same measure for `CCNC(=O)Nc1cc2c(-c3ccc(S(N)(=O)=O)cc3)ccc(C)c2cn1` [Example 35, 4-[3-(3-ethyl-ureido)-8-methyl-isoquinolin-5-yl]-benzenesulfonamide]: 0.5 µg/mL (≈ 1.3 µM); for `CCNC(=O)Nc1cc2c(N3CCN(C)CC3)ccc(Nc3cccnc3)c2cn1` [Example 277, 1-ethyl-3-[5-(4-methyl-piperazin-1-yl)-8-(pyridin-3-ylamino)-isoquinolin-3-yl]-urea]: 2 µg/mL (≈ 4.93 µM); for `CCNC(=O)Nc1cc2cccc(COc3ccccc3C(=O)OC)c2cn1.Cl` [Example 258, 2-[3-(3-ethyl-ureido)-isoquinolin-8-ylmethoxy]-benzoic acid methyl ester hydrochloride]: 8 µg/mL.
Compound `CCNC(=O)Nc1cc2c(-c3cccnc3F)ccc(C)c2cn1` [Example 66, 1-ethyl-3-[5-(2-fluoro-pyridin-3-yl)-8-methyl-isoquinolin-3-yl]-urea] gave an MIC of 4 µg/mL (≈ 12.3 µM).
`CCNC(=O)Nc1cc2cc(-c3cccc(O)c3)cc(C)c2cn1` [Example 20, 1-ethyl-3-[6-(3-hydroxy-phenyl)-8-methyl-isoquinolin-3-yl]-urea] registered a minimal inhibitory concentration (MIC) of 0.5 µg/mL (≈ 1.56 µM).
The same measure for `CCNC(=O)Nc1cc2c(-c3ccc(CO)cc3)ccc(Nc3cccc(C(=O)NC)c3)c2cn1` [Example 250, 3-[3-(3-ethyl-ureido)-5-(4-hydroxymethyl-phenyl)-isoquinolin-8-ylamino]-N-methyl-benzamide]: 1 µg/mL (≈ 2.13 µM); for `CCCNc1cc(Nc2cccnc2)c2cnc(NC(=O)NCC)cc2c1` [Example 238, 1-ethyl-3-[6-propylamino-8-(pyridin-3-ylamino)-isoquinolin-3-yl]-urea]: 0.5 µg/mL (≈ 1.37 µM); for `CCNC(=O)Nc1cc2cccc(Nc3ccc(C)c(C(=O)O)c3)c2cn1` [Example 265, 5-[3-(3-ethyl-ureido)-isoquinolin-8-ylamino]-2-methyl-benzoic acid]: 1 µg/mL (≈ 2.74 µM).
With `CCNC(=O)Nc1cc2cc(-c3cccnc3Cl)cc(C)c2cn1` [Example 82, 1-[6-(2-chloro-pyridin-3-yl)-8-methyl-isoquinolin-3-yl]-3-ethyl-urea], the MIC was 8 µg/mL (≈ 23.5 µM). Against the preceding compound, the MIC is about 8-fold higher.
As for `CCNC(=O)Nc1cc2c(-c3ccc(CO)nc3)ccc(C)c2cn1` [Example 8, 1-ethyl-3-[5-(6-hydroxymethyl-pyridin-3-yl)-8-methyl-isoquinolin-3-yl]-urea], it took 4 µg/mL (≈ 11.9 µM) to inhibit growth (MIC).
Take `CCNC(=O)Nc1cc2cccc(Nc3cc(F)ccn3)c2cn1.Cl` [Example 158, 1-ethyl-3-[8-(4-fluoro-pyridin-2-ylamino)-isoquinolin-3-yl]-urea hydrochloride]: the minimal inhibitory concentration (MIC) turned out to be 2 µg/mL. This MIC lies about 2-fold lower than the previous one.
The same measure for `CCNC(=O)Nc1cc2cccc(COc3cccc(O)c3)c2cn1.Cl` [Example 213, 1-ethyl-3-[8-(3-hydroxy-phenoxymethyl)-isoquinolin-3-yl]-urea hydrochloride]: 4 µg/mL; for `CCNC(=O)Nc1cc2c(-c3cn[nH]c3)ccc(C)c2cn1.Cl` [Example 281, 1-ethyl-3-[8-methyl-5-(1H-pyrazol-4-yl)-isoquinolin-3-yl]urea hydrochloride]: 0.5 µg/mL.
In the case of `CCNC(=O)Nc1cc2c(-c3ccc(O)cc3)ccc(C)c2cn1` [Example 2, 1-ethyl-3-[5-(4-hydroxy-phenyl)-8-methyl-isoquinolin-3-yl]-urea], the MIC was found to be 2 µg/mL (≈ 6.22 µM).
The compound `CCNC(=O)Nc1cc2cccc(NC(=O)c3ccc[nH]3)c2cn1.Cl` [Example 182, 1H-pyrrole-2-carboxylic acid [3-(3-ethyl-ureido)-isoquinolin-8-yl]-amide hydrochloride] displayed an MIC of 2 µg/mL.
As for `CCNC(=O)Nc1cc2cccc(Nc3cncc(F)c3)c2cn1.Cl` [Example 159, 1-ethyl-3-[8-(5-fluoro-pyridin-3-ylamino)-isoquinolin-3-yl]-urea hydrochloride], the minimal inhibitory concentration (MIC) was found to be 2 µg/mL.
Compound `CCNC(=O)Nc1cc2cccc(Nc3ccncn3)c2cn1` [Example 151, 1-ethyl-3-[8-(pyrimidin-4-ylamino)-isoquinolin-3-yl]-urea] displayed a minimum inhibitory concentration (MIC) of 4 µg/mL (≈ 13 µM).
Regarding `CCNC(=O)Nc1cc2cc(NCc3cccc(C(=O)O)c3)cc(C)c2cn1.Cl` [Example 128, 3-{[3-(3-ethyl-ureido)-8-methyl-isoquinolin-6-ylamino]-methyl}-benzoic acid hydrochloride], 8 µg/mL was the least that counted as inhibitory (MIC).
In turn, `CCNC(=O)Nc1cc2c(-c3ccccc3)cccc2cn1` [Example 43, 1-ethyl-3-(5-phenyl-isoquinolin-3-yl)-urea] came in with an MIC of 8 µg/mL (≈ 27.5 µM).
`CCNC(=O)Nc1cc2c(-c3cc(C)nc(C)c3)ccc(Nc3cccnc3)c2cn1` [Example 231, 1-[5-(2,6-dimethyl-pyridin-4-yl)-8-(pyridin-3-ylamino)-isoquinolin-3-yl]-3-ethyl-urea] displayed an MIC of 0.5 µg/mL (≈ 1.21 µM).
The compound `CCNC(=O)Nc1cc2c(-c3cccnc3)ccc(Nc3cccnc3)c2cn1` [Example 224, 1-ethyl-3-[5-pyridin-3-yl-8-(pyridin-3-ylamino)-isoquinolin-3-yl]-urea] displayed an MIC of 0.5 µg/mL (≈ 1.3 µM).
With `CCNC(=O)Nc1cc2cc(NC(=O)c3ccccc3)cc(C)c2cn1` [Example 106, N-[3-(3-ethyl-ureido)-8-methyl-isoquinolin-6-yl]-benzamide], the MIC turned out to be 0.125 µg/mL (≈ 0.359 µM). This MIC lies about 4-fold lower than the previous one.
In the case of `CCNC(=O)Nc1cc2cccc(Nc3ccncc3)c2cn1` [Example 153, 1-ethyl-3-[8-(pyridin-4-ylamino)-isoquinolin-3-yl]-urea], the lowest concentration to inhibit growth (MIC) was 8 µg/mL (≈ 26 µM).
The same measure for `CCNC(=O)Nc1cc2cc(NC(=O)c3cccc(C(=O)OC)c3)cc(C)c2cn1` [Example 194, N-[3-(3-ethyl-ureido)-8-methyl-isoquinolin-6-yl]isophthalamic acid methyl ester]: 4 µg/mL (≈ 9.84 µM); for `CCNC(=O)Nc1cc2cc(-c3ccc(C(=O)N(C)C)cc3)cc(C)c2cn1` [Example 24, 4-[3-(3-ethyl-ureido)-8-methyl-isoquinolin-6-yl]-N,N-dimethyl-benzamide]: 0.25 µg/mL (≈ 0.664 µM); for `CCNC(=O)Nc1cc2cc(-c3cccc(NC(C)=O)c3)cc(Nc3cccnc3)c2cn1` [Example 236, N-{3-[3-(3-ethyl-ureido)-8-(pyridin-3-ylamino)-isoquinolin-6-yl]-phenyl}-acetamide]: 0.5 µg/mL (≈ 1.14 µM).
`CCNC(=O)Nc1cc2cc(NC(=O)c3ccc(C(=O)OC)cc3)cc(C)c2cn1` [Example 193, N-[3-(3-ethyl-ureido)-8-methyl-isoquinolin-6-yl]terephthalamic acid methyl ester] displayed a minimal inhibitory concentration (MIC) of 1 µg/mL (≈ 2.46 µM).

(Values after patent publication US20130096119A1, “Isoquinolin-3-Ylurea Derivatives” (priority 2010, published 2013).)
